Measurements taken from US9321760B2 (Merck Patent GmbH, priority 2011, dated 2016).

molecular target: P70S6K (T412E mutant) (Homo sapiens (Human), UniProt P23443, T412E); test: P70S6K enzyme assay; type: biochemical; conditions: 3 nM P70S6K T412E mutant, 24 μM ATP, 1 μM FITC-AHA-AKRRRLSSLRA-OH substrate peptide, 90 min at 25° C.
Summary of the method: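 P70S6K T412E mutant (3 nM) with 24 μM ATP and 1 μM FITC-labelled S6-derived peptide in Hepes pH 7.5, MgCl2, DTT, Brij buffer; 90 min at 25° C, stopped with EDTA. Phosphorylated product and substrate peptides separated by microfluidic mobility shift; IC50 values derived.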

P70S6K (T412E mutant), sequence (P23443 whole entry T412E): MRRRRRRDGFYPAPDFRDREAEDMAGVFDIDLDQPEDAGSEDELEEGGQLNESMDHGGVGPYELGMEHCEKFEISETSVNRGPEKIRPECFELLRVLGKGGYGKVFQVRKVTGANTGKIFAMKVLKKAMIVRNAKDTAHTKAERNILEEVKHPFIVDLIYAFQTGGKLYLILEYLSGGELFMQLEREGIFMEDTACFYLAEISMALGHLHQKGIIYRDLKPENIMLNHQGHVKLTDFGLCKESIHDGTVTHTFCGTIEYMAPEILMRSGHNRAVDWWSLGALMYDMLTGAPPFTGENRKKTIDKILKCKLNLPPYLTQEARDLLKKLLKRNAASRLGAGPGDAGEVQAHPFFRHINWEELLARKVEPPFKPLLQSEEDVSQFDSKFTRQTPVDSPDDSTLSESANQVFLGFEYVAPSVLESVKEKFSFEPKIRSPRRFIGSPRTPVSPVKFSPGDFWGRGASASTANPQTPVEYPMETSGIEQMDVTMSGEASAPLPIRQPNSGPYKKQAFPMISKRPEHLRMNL

Structure (SMILES)	IC50 [nM]
Nc1ncnc(N2CCN(C(CN3CCC3)c3ccc(F)c(Cl)c3)CC2)c1-c1cn[nH]c1 (centres unmarked) [Example 135, 6-{4-[2-Azetidin-1-yl-1-(3-chloro-4-fluoro-phenyl)-ethyl]-piperazin-1-yl}-5-(1H-pyrazol-4-yl)-pyrimidin-4-ylamine]	3600
N#CC(c1ccc(F)cc1)N1CCN(c2ncnc(N)c2-c2ccc(F)cc2)CC1 (centres unmarked) [Example 158, {4-[6-Amino-5-(4-fluoro-phenyl)-pyrimidin-4-yl]-piperazin-1-yl}-(4-fluoro-phenyl)-acetonitrile]	240
NCC(c1ccccc1)N1CCN(c2ncnc(N)c2-c2ccc(F)cc2)CC1 (centres unmarked) [Example 6, 6-[4-(2-Amino-1-phenyl-ethyl)-piperazin-1-yl]-5-(4-fluoro-phenyl)-pyrimidin-4-ylamine]	6.3
N#Cc1cccc([C@@H](CN2CCC2)N2CCN(c3ncnc(N)c3-c3cn[nH]c3)CC2)c1 [Example 97, 3-((S)-1-{4-[6-Amino-5-(1H-pyrazol-4-yl)-pyrimidin-4-yl]-piperazin-1-yl}-2-azetidin-1-yl-ethyl)-benzonitrile]	3700

Second part, the compound after the results:

IC50 [nM]	Structure (SMILES)
1100	Nc1ncnc(N2CCN(C(CN3CCC3)c3ccc(C(F)(F)F)cc3F)CC2)c1-c1cn[nH]c1 (centres unmarked) [Example 120, 6-{4-[2-Azetidin-1-yl-1-(2-fluoro-4-trifluoromethyl-phenyl)-ethyl]-piperazin-1-yl}-5-(1H-pyrazol-4-yl)-pyrimidin-4-ylamine]
240	N#CC(c1ccc(C(F)(F)F)cc1)N1CCN(c2ncnc(N)c2-c2ccc(F)cc2)CC1 (centres unmarked) [Example 168, {4-[6-Amino-5-(4-fluoro-phenyl)-pyrimidin-4-yl]-piperazin-1-yl}-(4-trifluoromethyl-phenyl)-acetonitrile]
11	NCC(c1cccc(C(F)(F)F)c1)N1CCN(c2ncnc(N)c2-c2ccc(F)cc2)CC1 (centres unmarked) [Example 153, 6-{4-[2-Amino-1-(3-trifluoromethyl-phenyl)-ethyl]-piperazin-1-yl}-5-(4-fluoro-phenyl)-pyrimidin-4-ylamine]
16	Nc1ncnc(N2CCC(Cc3ccc(Cl)cc3)CC2)c1-c1ccc(F)cc1 [Example 49, 5-(4-Fluorophenyl)-6{4-(4-chlorobenzyl)-piperidin-1-yl}pyrimidin-4-amine]
